Read-outs that look alike come from different tables or passages of the source.
Experiments:
[1] = target: Ba/F3-EGFR-D770_N771insSVD cells (Homo sapiens, UniProt P00533, DUP768-770, cells depend on it); test: Ba/F3 cell survival assay, EGFR D770_N771insSVD; type: cell-based; settings: Cell Titer-Glo, 48 h, without IL-3; Table 4; read-out: BA/F3 (insSVD) IC50
Ba/F3-EGFR-WT cells = Ba/F3-EGFR-WT cells (Homo sapiens, UniProt P00533); test: Ba/F3 cell survival assay, wild type EGFR; type: cell-based; settings: Cell Titer-Glo, 48 h, with 10 ng/mL EGF; Table 4; read-out: BA/F3 (wild type) IC50
[2] = target: T1, EGFR with insertion SVD between D770 and N771 (mutEGFR D770_N771insSVD) (Homo sapiens, UniProt P00533, DUP768-770); test: Exon20-Mutant-EGFR(D770_N771insSVD) kinase assay (TR-FRET); type: biochemical; settings: 2 mM ATP, Table 2
T1 construct: amino acids R669 to A1210; made in house; host or cells: Sf9 insect cells (baculovirus)

Bub1 = target: T2, Bub1 (Homo sapiens, UniProt O43683); test: Bub1 high ATP kinase assay (TR-FRET); type: biochemical; settings: 2 mM ATP, Table 3
T2 construct: catalytic domain of human Bub1 (amino acids 704-1085); His6 (N); made in house; host or cells: insect cells (Hi5)
How it was run: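 Enzyme was His6-tagged human Bub1 catalytic domain (aa 704-1085) from Hi5 insect cells, typically about 200 ng/ml, with a biotinylated peptide substrate at high ATP. Reaction ran 60 min at 22 °C, then was stopped with EDTA. Phosphopeptide was detected by TR-FRET (anti-phosphoserine antibody, Eu-labelled anti-mouse IgG, streptavidin-XL665), read as the 665/620 nm emission ratio.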

[3] = Bub1 high ATP (2 mM) IC50, TR-FRET

T2 sequence (O43683 704-1085): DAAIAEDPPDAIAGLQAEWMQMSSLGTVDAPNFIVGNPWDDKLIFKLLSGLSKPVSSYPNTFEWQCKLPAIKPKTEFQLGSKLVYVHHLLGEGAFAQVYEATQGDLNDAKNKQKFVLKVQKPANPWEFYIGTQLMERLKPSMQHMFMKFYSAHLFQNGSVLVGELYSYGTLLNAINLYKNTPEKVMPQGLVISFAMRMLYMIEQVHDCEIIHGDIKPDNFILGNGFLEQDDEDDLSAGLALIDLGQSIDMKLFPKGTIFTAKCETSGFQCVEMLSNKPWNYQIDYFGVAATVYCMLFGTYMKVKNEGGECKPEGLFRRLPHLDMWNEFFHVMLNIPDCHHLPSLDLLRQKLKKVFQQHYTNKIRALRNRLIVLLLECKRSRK
Chain of Ba/F3-EGFR-D770_N771insSVD cells (P00533 with tags, fused parts or gaps DUP768-770): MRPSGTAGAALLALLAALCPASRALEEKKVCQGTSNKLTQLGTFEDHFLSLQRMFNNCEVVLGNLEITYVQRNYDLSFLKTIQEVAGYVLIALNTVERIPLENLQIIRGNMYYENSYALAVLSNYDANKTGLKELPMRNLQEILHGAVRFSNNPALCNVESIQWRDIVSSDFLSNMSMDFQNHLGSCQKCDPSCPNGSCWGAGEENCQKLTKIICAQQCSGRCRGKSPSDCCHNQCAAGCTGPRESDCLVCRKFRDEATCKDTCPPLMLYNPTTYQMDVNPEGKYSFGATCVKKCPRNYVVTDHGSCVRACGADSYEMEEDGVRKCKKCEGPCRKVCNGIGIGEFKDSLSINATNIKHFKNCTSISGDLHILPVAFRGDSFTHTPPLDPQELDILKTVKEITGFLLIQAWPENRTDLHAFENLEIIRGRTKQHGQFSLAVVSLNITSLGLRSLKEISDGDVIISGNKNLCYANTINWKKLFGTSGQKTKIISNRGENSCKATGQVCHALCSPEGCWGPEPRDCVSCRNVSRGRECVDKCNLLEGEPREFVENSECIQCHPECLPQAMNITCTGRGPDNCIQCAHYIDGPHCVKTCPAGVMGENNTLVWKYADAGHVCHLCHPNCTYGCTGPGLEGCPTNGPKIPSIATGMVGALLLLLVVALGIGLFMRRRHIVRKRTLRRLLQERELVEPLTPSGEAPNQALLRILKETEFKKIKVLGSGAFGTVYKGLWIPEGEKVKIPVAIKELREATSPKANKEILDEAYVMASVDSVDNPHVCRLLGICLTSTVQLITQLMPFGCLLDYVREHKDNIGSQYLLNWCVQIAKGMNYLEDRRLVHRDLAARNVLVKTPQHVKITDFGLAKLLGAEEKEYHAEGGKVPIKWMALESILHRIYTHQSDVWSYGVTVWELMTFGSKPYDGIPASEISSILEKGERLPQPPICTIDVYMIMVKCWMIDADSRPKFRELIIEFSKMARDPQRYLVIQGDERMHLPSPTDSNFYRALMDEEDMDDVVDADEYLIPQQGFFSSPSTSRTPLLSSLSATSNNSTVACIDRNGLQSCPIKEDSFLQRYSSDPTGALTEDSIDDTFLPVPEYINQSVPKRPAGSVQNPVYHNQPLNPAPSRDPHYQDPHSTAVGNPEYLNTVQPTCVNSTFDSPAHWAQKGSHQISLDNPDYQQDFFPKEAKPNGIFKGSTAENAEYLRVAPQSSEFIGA
T1 sequence (P00533 other isoform, or with tags, fused parts or gaps DUP768-770): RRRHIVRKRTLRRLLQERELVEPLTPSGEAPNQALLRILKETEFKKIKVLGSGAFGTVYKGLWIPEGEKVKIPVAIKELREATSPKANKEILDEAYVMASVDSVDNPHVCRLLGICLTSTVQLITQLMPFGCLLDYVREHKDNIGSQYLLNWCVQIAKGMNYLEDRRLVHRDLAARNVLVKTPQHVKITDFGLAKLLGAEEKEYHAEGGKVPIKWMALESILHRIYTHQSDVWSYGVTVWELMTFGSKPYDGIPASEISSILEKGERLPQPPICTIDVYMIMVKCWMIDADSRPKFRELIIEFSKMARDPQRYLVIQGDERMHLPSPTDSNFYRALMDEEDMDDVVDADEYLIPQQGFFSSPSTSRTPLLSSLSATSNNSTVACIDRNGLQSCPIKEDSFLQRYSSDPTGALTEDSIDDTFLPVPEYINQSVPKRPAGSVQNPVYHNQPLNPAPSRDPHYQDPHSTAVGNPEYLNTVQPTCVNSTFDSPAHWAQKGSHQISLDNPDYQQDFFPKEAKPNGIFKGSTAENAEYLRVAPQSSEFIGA
Chain of Ba/F3-EGFR-WT cells (P00533 whole entry, looked up, stated change not applied): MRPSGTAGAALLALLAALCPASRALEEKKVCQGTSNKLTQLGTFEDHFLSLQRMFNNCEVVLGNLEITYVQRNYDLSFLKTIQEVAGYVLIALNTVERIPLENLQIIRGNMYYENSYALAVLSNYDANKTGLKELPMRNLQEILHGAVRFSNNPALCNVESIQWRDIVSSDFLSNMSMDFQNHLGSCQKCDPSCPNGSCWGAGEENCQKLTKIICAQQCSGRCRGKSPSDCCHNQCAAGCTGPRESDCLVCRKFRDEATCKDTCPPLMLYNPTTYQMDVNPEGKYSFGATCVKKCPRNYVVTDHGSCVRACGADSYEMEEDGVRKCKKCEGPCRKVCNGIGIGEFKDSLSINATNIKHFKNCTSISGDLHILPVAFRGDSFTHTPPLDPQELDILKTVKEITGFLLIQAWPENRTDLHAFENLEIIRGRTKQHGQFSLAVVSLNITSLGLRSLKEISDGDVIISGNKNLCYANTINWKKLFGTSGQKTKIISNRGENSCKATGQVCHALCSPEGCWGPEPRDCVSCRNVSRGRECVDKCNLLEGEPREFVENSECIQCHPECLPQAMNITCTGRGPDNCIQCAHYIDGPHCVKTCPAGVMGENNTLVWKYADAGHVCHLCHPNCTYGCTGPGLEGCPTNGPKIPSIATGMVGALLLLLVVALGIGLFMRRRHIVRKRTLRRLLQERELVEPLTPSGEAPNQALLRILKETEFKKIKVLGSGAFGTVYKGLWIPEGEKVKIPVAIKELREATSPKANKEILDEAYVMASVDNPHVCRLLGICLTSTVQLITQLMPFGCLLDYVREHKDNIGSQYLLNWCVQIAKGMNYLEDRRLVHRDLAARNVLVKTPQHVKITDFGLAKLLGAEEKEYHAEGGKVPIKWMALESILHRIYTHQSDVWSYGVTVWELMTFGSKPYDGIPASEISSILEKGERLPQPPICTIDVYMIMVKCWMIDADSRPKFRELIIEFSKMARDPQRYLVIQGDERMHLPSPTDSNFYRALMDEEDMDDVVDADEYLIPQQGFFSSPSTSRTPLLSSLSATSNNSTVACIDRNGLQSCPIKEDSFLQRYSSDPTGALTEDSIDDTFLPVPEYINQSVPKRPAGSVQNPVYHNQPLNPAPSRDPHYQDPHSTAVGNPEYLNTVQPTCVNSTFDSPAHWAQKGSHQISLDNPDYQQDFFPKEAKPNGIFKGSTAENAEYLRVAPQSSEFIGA

For `COc1c(Cl)cccc1Nc1c(-c2ccncc2OCC2CCCCN2C)[nH]c2c1C(=O)N[C@H](C)C2` (mixture of isomers) [Example 83, (6R)-3-(3-chloro-2-methoxy-anilino)-6-methyl-2-{3-[(1-methyl-2-piperidyl)methoxy]-4-pyridyl}-1,5,6,7-tetrahydropyrrolo[3,2-c]pyridin-4-one], the GI50 [1] was 24.6 nM, the GI50 (Ba/F3-EGFR-WT cells) was 669 nM and the “mutEGFR (D770_N771insSVD) kinase assay IC50” value (“mutEGFR” for short) [2] was 849 pM. The IC50 (Bub1; [3]) was > 20 µM.
`COc1c(Cl)cccc1Nc1c(-c2ccncc2OC[C@@H]2CN(C)CCO2)[nH]c2c1C(=O)N[C@H](C)C2` [Example 11, (6R)-3-(3-chloro-2-methoxyanilino)-6-methyl-2-(3-{[(2S)-4-methylmorpholin-2-yl]methoxy}pyridin-4-yl)-1,5,6,7-tetrahydro-4H-pyrrolo[3,2-c]pyridin-4-one] was tested, and the GI50 [1] was 17.8 nM, the GI50 (Ba/F3-EGFR-WT cells) was 264 nM and the “mutEGFR” value [2] was 179 pM. For the same compound, the IC50 (Bub1; [3]) was > 20 µM.
`COc1c(Cl)cccc1Nc1c(-c2ccncc2OC[C@@H]2CCCO2)[nH]c2c1C(=O)NC1(CCC1)C2` [Example 126, 3′-(3-chloro-2-methoxyanilino)-2′-(3-{[(2S)-oxolan-2-yl]methoxy}pyridin-4-yl)-1′,7′-dihydrospiro[cyclobutane-1,6′-pyrrolo[3,2-c]pyridin]-4′(5′H)-one] was tested, and the GI50 [1] was 46.4 nM, the GI50 (Ba/F3-EGFR-WT cells) was 814 nM and the “mutEGFR” value [2] was 279 pM. The IC50 (Bub1; [3]) was 1.1 µM.
`COc1c(Cl)cccc1Nc1c(-c2ccncc2OC[C@@H]2COCCO2)[nH]c2c1C(=O)NC1(CC1)C2` [Example 111, 3′-(3-chloro-2-methoxyanilino)-2′-(3-{[(2S)-1,4-dioxan-2-yl]methoxy}pyridin-4-yl)-1′,7′-dihydrospiro[cyclopropane-1,6′-pyrrolo[3,2-c]pyridin]-4′(5′H)-one] was tested, and the GI50 [1] was 19.4 nM, the GI50 (Ba/F3-EGFR-WT cells) was 574 nM and the “mutEGFR” value [2] was 205 pM. It also gave an IC50 (Bub1; [3]) of 0.374 µM.
`COc1c(Cl)cccc1Nc1c(-c2ccncc2OC[C@@H]2COCCN2C)[nH]c2c1C(=O)NCC2CCF` (single isomer, unassigned) [Example 89] was tested, and the GI50 [1] was 18.2 nM, the GI50 (Ba/F3-EGFR-WT cells) was 425 nM and the “mutEGFR” value [2] was 278 pM. The IC50 (Bub1; [3]) was 15.6 µM.
For `COc1c(Cl)cccc1Nc1c(-c2ccncc2OCC(C)(C)OC)[nH]c2c1C(=O)NCC2CCO` (single isomer, unassigned) [Example 15, 3-(3-chloro-2-methoxyanilino)-7-(2-hydroxyethyl)-2-[3-(2-methoxy-2-methylpropoxy)pyridin-4-yl]-1,5,6,7-tetrahydro-4H-pyrrolo[3,2-c]pyridin-4-one], the GI50 [1] was 192 nM, the GI50 (Ba/F3-EGFR-WT cells) was 895 nM and the “mutEGFR” value [2] was 158 pM. It also gave an IC50 (Bub1; [3]) of 1.39 µM.
With `COc1c(Cl)cccc1Nc1c(-c2ccncc2OCC2CCCCO2)[nH]c2c1C(=O)NCC2C` (single isomer, unassigned) [Example 47, 3-(3-chloro-2-methoxy-anilino)-7-methyl-2-[3-(tetrahydropyran-2-ylmethoxy)-4-pyridyl]-1,5,6,7-tetrahydropyrrolo[3,2-c]pyridin-4-one] the GI50 [1] was 106 nM, the GI50 (Ba/F3-EGFR-WT cells) was 1990 nM and the “mutEGFR” value [2] was 667 pM. For the same compound, the IC50 (Bub1; [3]) was 7.6 µM.
With `COc1c(Cl)cccc1Nc1c(-c2ccncc2OCC2COC(C)(C)CO2)[nH]c2c1C(=O)NC1(CC1)C2` (centres unmarked) [Example 132, 3′-(3-chloro-2-methoxyanilino)-2′-{3-[(5,5-dimethyl-1,4-dioxan-2-yl)methoxy]pyridin-4-yl}-1′,7′-dihydrospiro[cyclopropane-1,6′-pyrrolo[3,2-c]pyridin]-4′(5′H)-one] the GI50 [1] was 44.9 nM, the GI50 (Ba/F3-EGFR-WT cells) was 986 nM and the “mutEGFR” value [2] was 394 pM. The IC50 (Bub1; [3]) was 1.48 µM.
`Cc1c(Cl)cccc1Nc1c(-c2ccncc2OCC2COCCO2)[nH]c2c1C(=O)NCC2C` (single isomer, unassigned) [Example 70, 3-(3-chloro-2-methyl-anilino)-2-[3-(1,4-dioxan-2-ylmethoxy)-4-pyridyl]-7-methyl-1,5,6,7-tetrahydropyrrolo[3,2-c]pyridin-4-one] was tested, and the GI50 [1] was 224 nM, the GI50 (Ba/F3-EGFR-WT cells) was 4630 nM and the “mutEGFR” value [2] was 255 pM. The IC50 (Bub1; [3]) was 1.55 µM.
In the case of `COc1c(Cl)cccc1Nc1c(-c2ccncc2OC[C@@H]2CCO2)[nH]c2c1C(=O)N[C@H](C)C2` [Example 6, (6R)-3-(3-chloro-2-methoxyanilino)-6-methyl-2-(3-{[(2S)-oxetan-2-yl]methoxy}pyridin-4-yl)-1,5,6,7-tetrahydro-4H-pyrrolo[3,2-c]pyridin-4-one], the GI50 [1] is reported as 86.4 nM, the GI50 (Ba/F3-EGFR-WT cells) is reported as 623 nM and the “mutEGFR” value [2] is reported as 217 pM. The IC50 (Bub1; [3]) was 10.2 µM.
In the case of `C[C@@H]1Cc2[nH]c(-c3ccncc3OCC3COCCO3)c(Nc3cccc(F)c3CC(F)F)c2C(=O)N1` (stereo partly drawn) [Example 108, (6R)-3-[2-(2,2-difluoroethyl)-3-fluoro-anilino]-2-[3-(1,4-dioxan-2-ylmethoxy)-4-pyridyl]-6-methyl-1,5,6,7-tetrahydropyrrolo[3,2-c]pyridin-4-one], the GI50 [1] is reported as 141 nM, the GI50 (Ba/F3-EGFR-WT cells) is reported as 1400 nM and the “mutEGFR” value [2] is reported as 213 pM. The IC50 (Bub1; [3]) was 6.22 µM.
`COc1c(Cl)cccc1Nc1c(-c2ccncc2OCC[C@@H]2CCCO2)[nH]c2c1C(=O)N[C@H](C)C2` [Example 92, (6R)-3-(3-chloro-2-methoxyanilino)-6-methyl-2-(3-{2-[(2S)-oxolan-2-yl]ethoxy}pyridin-4-yl)-1,5,6,7-tetrahydro-4H-pyrrolo[3,2-c]pyridin-4-one] was tested, and the GI50 [1] was 20.2 nM, the GI50 (Ba/F3-EGFR-WT cells) was 519 nM and the “mutEGFR” value [2] was 243 pM. For the same compound, the IC50 (Bub1; [3]) was 1.98 µM.
In the case of `Cc1c(Cl)cccc1Nc1c(-c2ccncc2OCC2COCCO2)[nH]c2c1C(=O)NCC2C` (single isomer, unassigned) [Example 68, 3-(3-chloro-2-methyl-anilino)-2-[3-(1,4-dioxan-2-ylmethoxy)-4-pyridyl]-7-methyl-1,5,6,7-tetrahydropyrrolo[3,2-c]pyridin-4-one], the GI50 [1] is reported as 63.7 nM, the GI50 (Ba/F3-EGFR-WT cells) is reported as 1380 nM and the “mutEGFR” value [2] is reported as 300 pM. For the same compound, the IC50 (Bub1; [3]) was 5.13 µM.
`COCC(C)Oc1cnccc1-c1[nH]c2c(c1Nc1cccc(Cl)c1OC)C(=O)N[C@H](C)C2` (mixture of isomers) [Example 41, (6R)-3-(3-chloro-2-methoxy-anilino)-2-{3-[(1-methoxypropan-2-yl)oxy]-4-pyridyl}-6-methyl-1,5,6,7-tetrahydropyrrolo[3,2-c]pyridin-4-one] was tested, and the GI50 [1] was 39.8 nM, the GI50 (Ba/F3-EGFR-WT cells) was 479 nM and the “mutEGFR” value [2] was 178 pM. It also gave an IC50 (Bub1; [3]) of 17 µM.
In the case of `Cc1c(Cl)cccc1Nc1c(-c2ccncc2OCC2COC(C)(C)CO2)[nH]c2c1C(=O)NCC2C` (centres unmarked) [Example 62, 3-(3-chloro-2-methyl-anilino)-2-[3-[(5,5-dimethyl-1,4-dioxan-2-yl)methoxy]-4-pyridyl]-7-methyl-1,5,6,7-tetrahydropyrrolo[3,2-c]pyridin-4-one], the GI50 [1] is reported as 52.6 nM, the GI50 (Ba/F3-EGFR-WT cells) is reported as 1100 nM and the “mutEGFR” value [2] is reported as 329 pM. The IC50 (Bub1; [3]) was 8.03 µM.
With `COc1c(Cl)cccc1Nc1c(-c2ccncc2OCC2OCCC2(F)F)[nH]c2c1C(=O)N[C@H](C)C2` (single isomer, unassigned) [Example 73] the GI50 [1] was 55.3 nM, the GI50 (Ba/F3-EGFR-WT cells) was 643 nM and the “mutEGFR” value [2] was 179 pM. It also gave an IC50 (Bub1; [3]) of 4.06 µM.
With `COc1c(Cl)cccc1Nc1c(-c2ccncc2OCC(C)OC)[nH]c2c1C(=O)N[C@H](C)C2` (mixture of isomers) [Example 80, (6R)-3-(3-chloro-2-methoxy-anilino)-2-[3-(2-methoxypropoxy)-4-pyridyl]-6-methyl-1,5,6,7-tetrahydropyrrolo[3,2-c]pyridin-4-one] the GI50 [1] was 19.9 nM, the GI50 (Ba/F3-EGFR-WT cells) was 628 nM and the “mutEGFR” value [2] was 131 pM. The IC50 (Bub1; [3]) was 2.67 µM.
With `COc1c(F)cccc1Nc1c(-c2ccncc2OC[C@@H]2CCCO2)[nH]c2c1C(=O)NC(C)C2` (single isomer, unassigned) [Example 9] the GI50 [1] was 104 nM, the GI50 (Ba/F3-EGFR-WT cells) was 644 nM and the “mutEGFR” value [2] was 101 pM. For the same compound, the IC50 (Bub1; [3]) was 8.24 µM.
For `COc1c(F)cccc1Nc1c(-c2ccncc2OC[C@@H]2CCCO2)[nH]c2c1C(=O)NC(C)C2` (single isomer, unassigned) [Example 10], the GI50 [1] was 31.7 nM, the GI50 (Ba/F3-EGFR-WT cells) was 382 nM and the “mutEGFR” value [2] was 95.7 pM. For the same compound, the IC50 (Bub1; [3]) was > 20 µM.
With `COc1c(Cl)cccc1Nc1c(-c2ccncc2OCC2COC(C)(C)CO2)[nH]c2c1C(=O)NCC2C` (single isomer, unassigned) [Example 96, 3-(3-chloro-2-methoxy-anilino)-2-[3-[(5,5-dimethyl-1,4-dioxan-2-yl)methoxy]-4-pyridyl]-7-methyl-1,5,6,7-tetrahydropyrrolo[3,2-c]pyridin-4-one] the GI50 [1] was 381 nM, the GI50 (Ba/F3-EGFR-WT cells) was 3430 nM and the “mutEGFR” value [2] was 985 pM. The IC50 (Bub1; read-out: Bub1 high ATP (2 mM) IC50, TR-FRET) was > 20 µM.
